These results are taken from patent publication US12516039B2, “N-linked isoquinoline amides as LRRK2 inhibitors, pharmaceutical compositions, and uses thereof” (Merck Sharp & Dohme LLC, priority 2020, dated 2026).

In one test the target is T1, GST-tagged truncated human mutant G2019S LRRK2 (Homo sapiens, UniProt Q5S007, G2019S).
T1 construct: GST-tagged truncated human mutant G2019S LRRK2; purchased Life Technologies Corporation (Carlsbad, CA)
T1 sequence (Q5S007 970-2527 G2019S limits assumed): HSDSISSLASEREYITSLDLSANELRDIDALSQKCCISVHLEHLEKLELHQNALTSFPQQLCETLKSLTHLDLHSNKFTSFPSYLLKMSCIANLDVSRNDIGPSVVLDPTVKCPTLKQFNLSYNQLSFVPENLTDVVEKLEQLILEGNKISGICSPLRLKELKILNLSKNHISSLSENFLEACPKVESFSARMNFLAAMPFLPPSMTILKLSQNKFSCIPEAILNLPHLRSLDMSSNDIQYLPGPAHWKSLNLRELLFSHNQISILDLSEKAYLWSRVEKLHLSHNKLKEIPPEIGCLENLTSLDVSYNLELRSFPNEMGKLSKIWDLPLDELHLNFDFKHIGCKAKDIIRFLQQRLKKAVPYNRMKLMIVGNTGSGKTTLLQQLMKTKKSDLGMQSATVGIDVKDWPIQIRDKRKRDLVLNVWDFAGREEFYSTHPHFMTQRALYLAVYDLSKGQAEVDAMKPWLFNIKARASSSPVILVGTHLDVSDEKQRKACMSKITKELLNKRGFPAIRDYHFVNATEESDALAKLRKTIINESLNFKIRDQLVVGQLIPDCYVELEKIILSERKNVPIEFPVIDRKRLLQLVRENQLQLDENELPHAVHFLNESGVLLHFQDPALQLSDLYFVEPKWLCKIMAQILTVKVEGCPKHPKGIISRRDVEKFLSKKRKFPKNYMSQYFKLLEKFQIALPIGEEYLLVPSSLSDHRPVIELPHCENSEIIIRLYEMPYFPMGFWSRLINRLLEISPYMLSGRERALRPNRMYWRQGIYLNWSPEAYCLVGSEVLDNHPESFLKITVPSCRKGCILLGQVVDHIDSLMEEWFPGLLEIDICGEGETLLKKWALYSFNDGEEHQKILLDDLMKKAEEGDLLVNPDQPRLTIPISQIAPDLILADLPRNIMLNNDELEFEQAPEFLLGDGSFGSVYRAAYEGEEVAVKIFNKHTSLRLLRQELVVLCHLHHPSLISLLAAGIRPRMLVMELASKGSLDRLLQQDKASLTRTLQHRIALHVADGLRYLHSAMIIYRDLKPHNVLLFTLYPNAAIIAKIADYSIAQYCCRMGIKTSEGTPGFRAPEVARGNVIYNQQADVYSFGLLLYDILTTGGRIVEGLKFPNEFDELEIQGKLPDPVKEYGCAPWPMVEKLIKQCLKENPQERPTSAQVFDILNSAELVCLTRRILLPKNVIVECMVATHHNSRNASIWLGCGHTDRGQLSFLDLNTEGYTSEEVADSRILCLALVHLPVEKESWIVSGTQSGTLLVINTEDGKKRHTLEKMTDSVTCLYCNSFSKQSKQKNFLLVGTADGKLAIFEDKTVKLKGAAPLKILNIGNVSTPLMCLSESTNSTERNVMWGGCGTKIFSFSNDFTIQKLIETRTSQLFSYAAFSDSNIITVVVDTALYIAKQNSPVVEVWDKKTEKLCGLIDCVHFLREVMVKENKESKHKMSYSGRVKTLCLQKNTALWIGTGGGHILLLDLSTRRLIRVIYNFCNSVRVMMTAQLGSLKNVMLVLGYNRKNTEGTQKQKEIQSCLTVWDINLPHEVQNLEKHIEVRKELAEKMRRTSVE
Nature of the test: LRRK2 G2019S Km ATP LanthaScreen assay. The class given is biochemical. As to conditions: 134 μM ATP (Km ATP), LRRKtide substrate, mean of several tests. In a few lines: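 GST-tagged truncated human LRRK2 G2019S (1.25 nM enzyme solution) was preincubated 15 min with compound, then reacted 90 min at ambient temperature with fluorescein-LRRKtide (400 nM solution) and 134 μM ATP (Km) in Tris pH 8.5. EDTA stop; Tb anti-phospho-LRRKtide TR-FRET (520/495 ratio). IC50 from 4-parameter fits, mean of several runs.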
On to “(3R or 3S)-N-[6-[4-((3R,4R or 3S,4S)-4-fluoro-3-methyl-tetrahydrofuran-3-yl)piperazin-1-yl]-7-methyl-3-isoquinolyl]-5,5-dimethyl-tetrahydrofuran-3-carboxamide [Ex-10.96]”, for which the “LRRK2 pIC50” value was 8.99. Same read-out and setting: for `O=C(Nc1cc2cc(N3CCc4[nH]ncc4C3)c(Cl)cc2cn1)C1CC1` [Ex-4.3] the value was 7.85; for `CC(C)C1CC(C(=O)Nc2cc3cc(N4CCN(C5(C)COCC5O)CC4)c(Cl)cc3cn2)C1` (stereo not drawn) [Ex-9.3], 8.58.

Staying with this test, now noted: 134 μM ATP (Km ATP), LRRKtide substrate, mean of several tests, read-out: LRRK2 pIC50 (converted).
`CC1(N2CCN(c3cc4cc(NC(=O)C5CC5C5CCOCC5)ncc4cc3Cl)CC2)COCC1O` (single isomer, unassigned) [Ex-10.31, (1R,2R or 1S,2S)-N-[7-chloro-6-[4-((3R,4R or 3S,4S)-4-hydroxy-3-methyl-tetrahydrofuran-3-yl)piperazin-1-yl]-3-isoquinolyl]-2-tetrahydropyran-4-yl-cyclopropanecarboxamide]: the IC50 is 0.0813 nM. Regarding `CC1(c2ccccn2)CC1C(=O)Nc1cc2cc(N3CCN(C4(C)COCC4O)CC3)c(Cl)cc2cn1` (single isomer, unassigned) [Ex-11.2, (1R,2R)(3R,4R)— or (1R,2S)(3R,4R)— or (1S,2R)(3R,4R)— or (1S,2S)(3R,4R)— or (1R,2R)(3S,4S)— or (1R,2S)(3S,4S)— or (1S,2R)(3S,4S)— or (1S,2S)(3S,4S)-N-(7-chloro-6-(4-(4-hydroxy-3-methyltetrahydrofuran-3-yl)piperazin-1-yl)isoquinolin-3-yl)-2-methyl-2-(pyridin-2-yl)cyclopropane-1-carboxamide], the IC50 is 45.7 nM. Turning to `Cc1cc2cnc(NC(=O)C3C4CCOCC43)cc2cc1N1CCN(C2(C)CCOC2)CC1` (single isomer, unassigned) [Ex-10.46, (1S,6R,7R, 1R,6S,7R, or 1R, 6S,7S, or 1S,6S,7S)-N-(7-methyl-6-(4-((R or S)-3-methyltetrahydrofuran-3-yl)piperazin-1-yl)isoquinolin-3-yl)-3-oxabicyclo[4.1.0]heptane-7-carboxamide], the IC50 was 0.457 nM. On to `COC1COCC1N1CCN(c2cc3cc(NC(=O)C4CC45CCOCC5)ncc3cc2Cl)CC1` (single isomer, unassigned) [Ex-5.9], for which the IC50 is 1510 nM.

Turning to `C[C@H]1CN(c2cc3cc(NC(=O)C4CC45CCOCC5)ncc3cc2Cl)CCN1C1(C)COCC1O` (single isomer, unassigned) [Ex-2.20, (R or S)-N-(7-chloro-6-((S or R)-4-((3R,4R, or 3S,4S)-4-hydroxy-3-methyltetrahydrofuran-3-yl)-3-methylpiperazin-1-yl)isoquinolin-3-yl)-6-oxaspiro[2.5]octane-1-carboxamide], the IC50 is 0.178 nM. As for `CC1(N2CCN(c3cc4cc(NC(=O)C5CC56CCCOC6)ncc4cc3Cl)CC2)COCC1O` (single isomer, unassigned) [Ex-1.17, (1R,3S, or 1R,3R, or 1S,3S, or 1S,3R)-N-(7-chloro-6-(4-((3R,4R or 3S,4S)-4-hydroxy-3-methyltetrahydrofuran-3-yl)piperazin-1-yl)isoquinolin-3-yl)-5-oxaspiro[2.5]octane-1-carboxamide], the IC50 was 776 nM. As to `CC1(C)OCCC1C(=O)Nc1cc2cc(N3CCN(C4(C)COCC4O)CC3)c(Cl)cc2cn1` (single isomer, unassigned) [Ex-1.24, (R or S)-N-(7-chloro-6-(1-((3R,4R or 3S,4S)-4-hydroxy-3-methyltetrahydrofuran-3-yl)piperazin-4-yl)isoquinolin-3-yl)-2,2-dimethyltetrahydrofuran-3-carboxamide], the IC50 was 69.2 nM. As to `N#CC1(F)CCN(c2cc3cc(NC(=O)C4CC4c4cncnc4)ncc3cc2Cl)CC1` (single isomer, unassigned) [Ex-5.20], the IC50 was 9.12 nM. As for `Cc1cc2cnc(NC(=O)C3C(C)C3c3cnn(C)c3)cc2cc1N1CCN(C2(C)CCOC2)CC1` (single isomer, unassigned) [Ex-9.13], the IC50 was 11.5 nM.

For the molecule `Cc1cc2cnc(NC(=O)C3CC34CCOCC4)cc2cc1N1CCN(C2(C)COCC2O)C[C@@H]1C` (single isomer, unassigned) [Ex-15.2, (R or S)-N-(6-((2R or 2S)-4-(4-(3R,4R or 3S,4S)-hydroxy-3-methyltetrahydrofuran-3-yl)-2-methylpiperazin-1-yl)-7-methylisoquinolin-3-yl)-6-oxaspiro[2.5]octane-1-carboxamide], the IC50 was 0.0813 nM. On to `Cc1cc2cnc(NC(=O)C3CC3c3cnn(C)c3C(F)(F)F)cc2cc1N1CCN(C2(C)CCOC2)CC1` (single isomer, unassigned) [Ex-10.35, (1R,2R or 1S,2S)-N-[7-methyl-6-[4-((R or S)-3-methyltetrahydrofuran-3-yl)piperazin-1-yl]-3-isoquinolyl]-2-[1-methyl-5-(trifluoromethyl)pyrazol-4-yl]cyclopropanecarboxamide], for which the IC50 was 1.7 nM. As for `C[C@H]1CN(c2cc3cc(NC(=O)C4CC45CCOCC5)ncc3cc2Cl)CCN1C1COCC1O` (single isomer, unassigned) [Ex-2.4, (R or S)-N-{7-chloro-6-[(3S or 3R)-4-(3R,4R or 3S,4S)-4-hydroxyoxolan-3-yl)-3-methylpiperazin-1-yl]isoquinolin-3-yl}-6-oxaspiro[2.5]octane-1-carboxamide], the IC50 was 0.38 nM. For `CC1(N2CCN(c3cc4cc(NC(=O)C5CC5)ncc4cc3F)CC2)COCC1O` (single isomer, unassigned) [Ex-1.5, (3R,4R or 3S,4S)-N-(7-fluoro-6-(4-(4-hydroxy-3-methyltetrahydrofuran-3-yl)piperazin-1-yl)isoquinolin-3-yl)cyclopropanecarboxamide], the IC50 is 7.08 nM. Take `CC1(N2CCN(c3cc4cc(NC(=O)C5CC5)ncc4cc3Cl)CC2)COCC1O` (single isomer, unassigned) [Ex-1.1, (3R,4R or 3S,4S)-N-(7-chloro-6-(4-(4-hydroxy-3-methyltetrahydrofuran-3-yl)piperazin-1-yl)isoquinolin-3-yl)cyclopropanecarboxamide]: the IC50 was […].

Take `CC1(C2CCOC2)CC1C(=O)Nc1cc2cc(N3CCN(C4(C)COCC4O)CC3)c(Cl)cc2cn1` (single isomer, unassigned) [Ex-10.82, (1R,2R or 1S,2S, or 1R,2S, or 1S,2R)-N-[7-chloro-6-[4-((3R,4R or 3S,4S)-4-hydroxy-3-methyl-tetrahydrofuran-3-yl)piperazin-1-yl]-3-isoquinolyl]-2-methyl-2-tetrahydrofuran-3-yl-cyclopropanecarboxamide]: the IC50 was 0.1 nM. The same measure, in the same setting: for `CC1(N2CCN(c3cc4cc(NC(=O)C5CC56CCOCC6)ncc4cc3Cl)CC2)CCOC1` (single isomer, unassigned) [Ex-5.11] the value was 2.45 nM; for `Cc1cc2cnc(NC(=O)C3CC3c3cnn(C)c3C(F)(F)F)cc2cc1N1CCN(C2(C)CCOC2)CC1` (single isomer, unassigned) [Ex-10.36, (1R,2R or 1S,2S)-N-[7-methyl-6-[4-((R or S)-3-methyltetrahydrofuran-3-yl)piperazin-1-yl]-3-isoquinolyl]-2-[1-methyl-5-(trifluoromethyl)pyrazol-4-yl]cyclopropanecarboxamide], 107 nM. With `CC1(N2CCN(c3cc4cc(NC(=O)C5CC56CCC(F)(F)CC6)ncc4cc3Cl)CC2)COCC1O` (single isomer, unassigned) [Ex-1.19, (1R or 1S)-N-(7-chloro-6-(4-((3R,4R or 3S,4S)-4-hydroxy-3-methyltetrahydrofuran-3-yl)piperazin-1-yl)isoquinolin-3-yl)-6,6-difluorospiro[2.5]octane-1-carboxamide], the IC50 is 1.1 nM.

As to `Cc1cc2cnc(NC(=O)C3CC34CCOC4)cc2cc1N1CCN(C2(C)COCC2O)CC1` (single isomer, unassigned) [Ex-6.7, (1R, 3S or 1S,3R, or 1R,3S, or 1S,3S)-N-(6-(4-((3R, 4R or 3S,4S)-4-hydroxy-3-methyltetrahydrofuran-3-yl)piperazin-1-yl)-7-methylisoquinolin-3-yl)-5-oxaspiro[2.4]heptane-1-carboxamide], the IC50 is 126 nM. For the molecule `N#CC1CCN(c2cc3cc(NC(=O)C4CC4c4cncnc4)ncc3cc2Cl)CC1` (single isomer, unassigned) [Ex-5.18], the IC50 is 67.6 nM. On to `CCC1C(C(=O)Nc2cc3cc(N4CCN(C5(C)COCC5F)CC4)c(Cl)cc3cn2)C1c1ccn(C)n1` (single isomer, unassigned) [Ex-10.49, (1R,2R,3R, 1R,2S,3R, or 1S,2R,3S, or 1S,2S,3S)-N-[7-chloro-6-[4-((3R,4R or 3S,4S)-4-fluoro-3-methyl-tetrahydrofuran-3-yl)piperazin-1-yl]-3-isoquinolyl]-2-ethyl-3-(1-methylpyrazol-3-yl)cyclopropanecarboxamide], for which the IC50 was 0.0813 nM. Take `CC1(C)C(C(=O)Nc2cc3cc(N4CCN(C5(C)COCC5O)CC4)c(Cl)cc3cn2)C1C1CCCCO1` (single isomer, unassigned) [Ex-10.92, (1R,2R,3R, 1R,2S,3R, or 1S,2R,3S, or 1S,2S,3S)-N-[7-chloro-6-[4-((3R,4R or 3S,4S)-4-hydroxy-3-methyl-tetrahydrofuran-3-yl)piperazin-1-yl]-3-isoquinolyl]-2,2-dimethyl-3-tetrahydropyran-2-yl-cyclopropanecarboxamide]: the IC50 was 1.95 nM. On to `CCOC1CC1C(=O)Nc1cc2cc(N3CCN(C4(C)COCC4O)CC3)c(Cl)cc2cn1` (single isomer, unassigned) [Ex-10.12], for which the IC50 is 0.0832 nM. For the molecule `O=C(Nc1cc2cc(N3CCN(C4COCC4O)CC3)c(Cl)cc2cn1)C1CC1` (single isomer, unassigned) [Ex-1.3, (3R,4R or 3S,4S)-N-(7-chloro-6-(4-(4-hydroxytetrahydrofuran-3-yl)piperazin-1-yl)isoquinolin-3-yl)cyclopropanecarboxamide], the IC50 is 1.95 nM.
